Test results published in patent US20240352021A1 (DANA-FARBER CANCER INSTITUTE, INC., priority 2021, published 2024).
Where two headings read alike, the source gives them in different places.

What was measured:
[1] = biological target: EGFR L858R/C797S Ba/F3 cells (Homo sapiens, UniProt P00533, C797S/L858R, cells depend on it); experiment: Ba/F3 cell proliferation (Cell Titer Glo), EGFR L858R/C797S; format: cell-based, murine; conditions: 72 hours
Excerpt: (§1) The EGFR mutant L858R Ba/F3 cells have been previously described (Zhou, W., et al. Nature 462, 2009, 1070-1074). The EGFR C797S and C775S mutations were introduced via site directed mutagenesis using the Quick Change Site-Directed Mutagenesis kit into a vector containing EGFR L858R mutation (Stratagene; La Jolla, CA) according to the manufacturer's instructions. All constructs were confirmed by DNA sequencing. The constructs were then shuttled into the retroviral vector JP1540 by either using the Cre-recombination system (Agilent Technologies, Santa Clara, CA) or the In-fusion HD Cloning kit (Takara Bio USA, Inc.; Mountain view, CA). Ba/F3 cells were then infected with retrovirus per standard protocols, as described previously (Zhou, et al, Nature 2009). Stable clones were obtained by selection in puromycin (2 μg/ml). All BaF/3 mutant cells were maintained in RPMI 1640 (Cellgro; Mediatech Inc., Herndon, CA) supplemented with 10% FBS, 100 units/mL penicillin, 100 units/mL streptomycin.
(§2) Growth and inhibition of growth was assessed by the Cell Titer Glo assay (Promega, Madison, WI) and was performed according to the manufacturer's instructions. The Cell Titer Glo assay is a luminescence-based method used to determine the number of viable cells based on quantitation of the ATP present, which is directly proportional to the amount of metabolically active cells present. Ba/F3 cells of different EGFR genotypes were exposed to compounds for 72 hours and the number of cells used per experiment was determined empirically as has been previously established (Zhou, et al., Nature 2009). All experimental points were set up in triplicates in 384-well plates. […] The curves were fitted using a non-linear regression model with a sigmoidal dose response.
(§3) Ba/F3 cells assay data are provided below in Table 5 and Table 6. For inhibitory activity against EGFR mutants, the following designations are used: <0.1 μM=A, 0.1 μM˜0.5 μM=B, 0.5 μM˜2.5 μM=C, ≥2.5 μM=D

[2] = biological target: EGFR mutant L858R Ba/F3 cells (Homo sapiens, UniProt P00533, L858R, cells depend on it); experiment: Ba/F3 cell proliferation (Cell Titer Glo), EGFR L858R; format: cell-based, murine; conditions: 72 hours
Excerpt: as §1, §2, §3

Chain of EGFR L858R/C797S Ba/F3 cells (P00533 whole entry C797S/L858R, the tested form may be a part): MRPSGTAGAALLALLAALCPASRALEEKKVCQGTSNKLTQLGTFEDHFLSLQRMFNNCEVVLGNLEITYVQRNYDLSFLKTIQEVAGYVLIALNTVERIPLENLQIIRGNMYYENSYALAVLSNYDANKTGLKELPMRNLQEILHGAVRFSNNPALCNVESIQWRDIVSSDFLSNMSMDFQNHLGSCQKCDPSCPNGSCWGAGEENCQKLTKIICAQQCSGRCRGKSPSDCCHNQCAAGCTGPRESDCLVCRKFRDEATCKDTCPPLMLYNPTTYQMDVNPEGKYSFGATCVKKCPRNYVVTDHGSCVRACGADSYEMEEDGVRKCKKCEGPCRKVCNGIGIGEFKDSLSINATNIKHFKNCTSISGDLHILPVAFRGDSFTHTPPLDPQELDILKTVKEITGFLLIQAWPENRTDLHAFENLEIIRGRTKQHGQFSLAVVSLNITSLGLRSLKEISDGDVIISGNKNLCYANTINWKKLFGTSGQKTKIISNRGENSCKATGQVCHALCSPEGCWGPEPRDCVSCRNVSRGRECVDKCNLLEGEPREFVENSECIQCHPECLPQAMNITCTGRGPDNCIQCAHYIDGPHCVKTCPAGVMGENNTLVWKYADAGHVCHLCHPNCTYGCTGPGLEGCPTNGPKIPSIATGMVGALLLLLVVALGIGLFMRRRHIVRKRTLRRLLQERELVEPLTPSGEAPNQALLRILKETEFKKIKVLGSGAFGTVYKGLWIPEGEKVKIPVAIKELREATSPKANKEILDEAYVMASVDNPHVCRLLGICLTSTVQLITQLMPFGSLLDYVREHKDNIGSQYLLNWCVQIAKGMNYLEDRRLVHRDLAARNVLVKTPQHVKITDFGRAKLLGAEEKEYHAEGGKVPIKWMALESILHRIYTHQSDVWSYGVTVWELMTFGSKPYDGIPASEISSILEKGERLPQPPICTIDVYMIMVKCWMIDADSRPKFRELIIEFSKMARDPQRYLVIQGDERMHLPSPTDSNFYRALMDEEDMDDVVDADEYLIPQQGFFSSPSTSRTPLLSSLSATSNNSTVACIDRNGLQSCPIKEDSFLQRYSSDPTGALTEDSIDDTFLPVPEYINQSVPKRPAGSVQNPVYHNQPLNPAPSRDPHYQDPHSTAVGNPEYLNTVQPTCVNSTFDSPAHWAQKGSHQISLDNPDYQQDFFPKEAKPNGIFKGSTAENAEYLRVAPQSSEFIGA
Chain of EGFR mutant L858R Ba/F3 cells (P00533 whole entry L858R): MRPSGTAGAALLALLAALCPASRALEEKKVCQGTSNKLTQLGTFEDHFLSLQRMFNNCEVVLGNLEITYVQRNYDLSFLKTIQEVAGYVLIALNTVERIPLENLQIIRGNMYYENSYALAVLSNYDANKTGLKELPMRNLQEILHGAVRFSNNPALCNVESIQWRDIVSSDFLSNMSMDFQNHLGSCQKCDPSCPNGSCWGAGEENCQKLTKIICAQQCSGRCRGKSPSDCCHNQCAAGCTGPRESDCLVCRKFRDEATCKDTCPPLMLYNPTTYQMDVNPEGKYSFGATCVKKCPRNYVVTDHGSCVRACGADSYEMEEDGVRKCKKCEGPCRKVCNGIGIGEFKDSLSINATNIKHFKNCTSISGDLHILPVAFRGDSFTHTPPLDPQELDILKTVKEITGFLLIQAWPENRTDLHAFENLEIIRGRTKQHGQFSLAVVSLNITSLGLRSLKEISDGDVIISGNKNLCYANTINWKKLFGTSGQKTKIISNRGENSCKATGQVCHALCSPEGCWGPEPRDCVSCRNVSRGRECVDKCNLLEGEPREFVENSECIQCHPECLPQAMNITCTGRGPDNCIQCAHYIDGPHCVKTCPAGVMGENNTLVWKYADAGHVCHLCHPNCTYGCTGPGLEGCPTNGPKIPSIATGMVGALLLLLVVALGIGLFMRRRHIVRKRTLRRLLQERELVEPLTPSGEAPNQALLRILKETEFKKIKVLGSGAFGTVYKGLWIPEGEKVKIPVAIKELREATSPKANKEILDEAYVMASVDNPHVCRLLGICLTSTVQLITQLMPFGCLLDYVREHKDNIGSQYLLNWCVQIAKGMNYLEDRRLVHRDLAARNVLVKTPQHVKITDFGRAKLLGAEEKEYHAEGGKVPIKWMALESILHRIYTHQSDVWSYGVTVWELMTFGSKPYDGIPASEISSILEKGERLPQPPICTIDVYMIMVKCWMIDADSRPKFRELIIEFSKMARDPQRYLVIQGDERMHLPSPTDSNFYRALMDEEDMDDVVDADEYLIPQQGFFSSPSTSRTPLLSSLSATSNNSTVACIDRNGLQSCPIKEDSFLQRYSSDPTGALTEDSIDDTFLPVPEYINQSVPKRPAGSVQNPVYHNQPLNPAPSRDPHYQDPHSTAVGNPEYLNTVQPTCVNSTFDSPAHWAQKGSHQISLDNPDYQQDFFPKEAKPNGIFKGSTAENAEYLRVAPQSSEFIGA

Structure (SMILES)	GI50 ([1]; Table 6) [nM]	GI50 ([2]; Table 6, read-out: L858R BaF3) [nM]	GI50 ([1]; Table 5) [nM]	GI50 ([2]; Table 5, read-out: L858R BaF3) [nM]
C=CC(=O)N1CCC(N2Cc3cnc(Nc4ccc(N5CCN(C)CC5)nc4)nc3N(C)C2=O)c2ccccc21 (stereo not drawn) [Compound 056]	< 100	< 100	–	–
C=CC(=O)N1CCC(N2Cc3cnc(Nc4cccc(OC(F)F)c4)nc3N(C)C2=O)c2ccccc21 (stereo not drawn) [Compound 081]	< 100	< 100	–	–
C/C=C(\C#N)C(=O)N1CC[C@H](N2Cc3cnc(Nc4ccc(N5CCN(C)CC5)cc4)nc3N(C)C2=O)c2ccccc21 [Compound 101]	≥ 2500	≥ 2500	–	–
C=CC(=O)N1CCC(N2Cc3cnc(Nc4ccc(N5CCN(C)CC5)cn4)cc3N(C)C2=O)c2ccccc21 (stereo not drawn) [Compound 086, 1-methyl-7-[[5-(4-methylpiperazin-1-yl)-2-pyridyl]amino]-S-(1-prop-2-enoyl-3,4-dihydro-2H-quinolin-4-yl)-4Hpyrido[4,3-d]pyrimidin-2-one]	< 100	< 100	–	–
C=C(F)C(=O)N1CC[C@H](N2Cc3cnc(Nc4cnn(CCO)c4)nc3N(c3ccccn3)C2=O)c2ccccc21 [Compound 111]	500 to 2500	100 to 500	–	–
C=CC(=O)N1CCC(N2Cc3cnc(Nc4ccc(N5CCN(C)CC5)c(Cl)c4)nc3N(C)C2=O)c2ccccc21 (stereo not drawn) [Compound 079]	< 100	< 100	–	–
C=CC(=O)N1CCC(N2Cc3cnc(Nc4ccc(C5CCN(C)CC5)cc4)nc3N(C)C2=O)c2ccccc21 (stereo not drawn) [Compound 066]	< 100	< 100	–	–
CN1CCN(c2ccc(Nc3ncc4c(n3)N(C)C(=O)N([C@H]3CCN(C(=O)/C=C/CF)c5ccccc53)C4)cc2)CC1 [Compound 095]	< 100	< 100	–	–
C=C(F)C(=O)N1CC[C@H](N2Cc3cnc(Nc4cnn(CCO)c4)nc3N(C)C2=O)c2ccccc21 [Compound 093]	< 100	< 100	–	–
[2H]C1(N2Cc3cnc(Nc4cnn(CCO)c4)nc3N(C3CC3)C2=O)CCN(C(=O)C(=C)F)c2ccccc21 (stereo not drawn) [Compound 113, 1-cyclopropyl-S-[4-deuterio-1-(2-fluoroprop-2-enoyl)-2,3-dihydroquinolin-4-yl]-7-[[1-(2-hydroxyethyl)pyrazol-4-yl]amino]-4H-pyrimido[4,5-d]pyrimidin-2-one]	100 to 500	< 100	–	–
C=CC(=O)N1c2ccccc2C(N2Cc3cnc(Nc4ccc(N5CCN(C)CC5)cc4)nc3N(C)C2=O)CC1(C)C (stereo not drawn) [Compound 107, 3-(1-acryloyl-2,2-dimethyl-1,2,3,4-tetrahydroquinolin-4-yl)-1-methyl-7-((4-(4-methylpiperazin-1-yl)phenyl)amino)-3,4-dihydropyrimido[4,5-d]pyrimidin-2(1H)-one]	≥ 2500	≥ 2500	–	–
C=CC(=O)N1CCC(N2Cc3nnc(Nc4ccc(N5CCN(C)CC5)cc4)cc3N(C)C2=O)c2ccccc21 (stereo not drawn) [Compound 092, 5-methyl-S-[4-(4-methylpiperazin-1-yl)anilino]-7-(1-prop-2-enoyl-3,4-dihydro-2H-quinolin-4-yl)-8H-pyrimido[5,4-c]pyridazin-6-one]	≥ 2500	≥ 2500	–	–
C=CC(=O)N1CCC(N2Cc3cnc(Nc4cccc(N5CCN(C)CC5)c4)nc3N(C)C2=O)c2ccccc21 (stereo not drawn) [Compound 073]	< 100	< 100	–	–
C=CC(=O)N1CCC(N2Cc3cnc(Nc4ccc(N(C)C)cc4)nc3N(C)C2=O)c2ccccc21 (stereo not drawn) [Compound 074]	< 100	< 100	–	–
CN1C(=O)N(C2CN(C#N)c3ccccc32)Cc2cnc(Nc3cnn(CCO)c3)nc21 (stereo not drawn) [Compound 106, 3-[7-[[1-(2-hydroxyethyl)pyrazol-4-yl]amino]-1-methyl-2-oxo-4H-pyrimido[4,5-d]pyrimidin-S-yl]indoline-1-carbonitrile]	≥ 2500	≥ 2500	–	–
C=CC(=O)N1CCC(N2Cc3cnc(Nc4ccc(CN5CCN(C)CC5)cn4)nc3N(C)C2=O)c2ccccc21 (stereo not drawn) [Compound 070]	< 100	< 100	–	–
C=CC(=O)N1CCC(N2Cc3cnc(Nc4ccc(N5CCN(C)CC5)cn4)nc3N(C)C2=O)c2ccccc21 (stereo not drawn) [Compound 069]	< 100	< 100	–	–
C=CC(=O)N1CCC(N2Cc3cnc(Nc4ccc(OCCN5CCCC5)cc4)nc3N(C)C2=O)c2ccccc21 (stereo not drawn) [Compound 068]	< 100	< 100	–	–

Structure (SMILES)	GI50 ([1]; Table 6) [nM]	GI50 ([2]; Table 6, read-out: L858R BaF3) [nM]	GI50 ([1]; Table 5) [nM]	GI50 ([2]; Table 5, read-out: L858R BaF3) [nM]
C=CC(=O)N1CCC(N2Cc3nnc(Nc4ccc(N5CCN(C)CC5)cn4)cc3N(C)C2=O)c2ccccc21 (stereo not drawn) [Compound 105]	≥ 2500	≥ 2500	–	–
C=CC(=O)Nc1c(F)cccc1CN1Cc2cnc(Nc3ccc(N4CCN(C)CC4)cc3)nc2N(C)C1=O [Compound 019]	–	–	500 to 2500	100 to 500
[2H]C1(N2Cc3cnc(Nc4cnn(CCO)c4)nc3N(C)C2=O)CCN(C(=O)C=C)c2c(OC)cccc21 (stereo not drawn) [Compound 129, 3-(4-deuterio-8-methoxy-1-prop-2-enoyl-2,3-dihydroquinolin-4-yl)-7-[[1-(2-hydroxyethyl)pyrazol-4-yl]amino]-1-methyl-4H-pyrimido[4,5-d]pyrimidin-2-one]	≥ 2500	500 to 2500	–	–
C=CC(=O)N1CCC(N2Cc3cnc(Nc4ccc(N5CCN(C)CC5)c(F)c4)nc3N(C)C2=O)c2ccccc21 (stereo not drawn) [Compound 055]	< 100	< 100	–	–
C=CC(=O)N1CCC(N2Cc3cnc(Nc4ccc(N5CCN(C)C6(CC6)C5)cc4)nc3N(C)C2=O)c2ccccc21 (stereo not drawn) [Compound 085, 1-methyl-7-[4-(4-methyl-4,7-diazaspiro[2.5]octan-7-yl)anilino]-S-(1-prop-2-enoyl-3,4-dihydro-2H-quinolin-4-yl)-4H-pyrimido[4,5-d]pyrimidin-2-one]	< 100	< 100	–	–
C=CC(=O)N1CCC(N2Cc3cnc(Nc4ccc(N(C)CCN(C)C)c(C(F)(F)F)c4)nc3N(C)C2=O)c2ccccc21 (stereo not drawn) [Compound 076]	< 100	< 100	–	–
C=CC(=O)N1CCC(N2Cc3cnc(Nc4ccc(N5CCN(C)CC5)c(-c5cnn(C)c5)c4)nc3N(C)C2=O)c2ccccc21 (stereo not drawn) [Compound 052, 1-methyl-7-[4-(4-methylpiperazin-1-yl)-S-(1-methylpyrazol-4-yl)anilino]-S-(1-prop-2-enoyl-3,4-dihydro-2H-quinolin-4-yl)-4H-pyrimido[4,5-d]pyrimidin-2-one]	100 to 500	< 100	–	–
C=CC(=O)N1CCC(C)(N2Cc3cnc(Nc4cnn(CCO)c4)nc3N(C)C2=O)c2ccccc21 (stereo not drawn) [Compound 112, 7-[[1-(2-hydroxyethyl)pyrazol-4-yl]amino]-1-methyl-S-(4-methyl-1-prop-2-enoyl-2,3-dihydroquinolin-4-yl)-4H-pyrimido[4,5-d]pyrimidin-2-one]	≥ 2500	≥ 2500	–	–
C=CC(=O)N1CCC(N2Cc3cnc(Nc4cnn(C)c4)nc3N(C)C2=O)c2ccccc21 (stereo not drawn) [Compound 061]	< 100	< 100	–	–
C=C(C)C(=O)N1CC[C@H](N2Cc3cnc(Nc4ccc(N5CCN(C)CC5)cc4)nc3N(C)C2=O)c2ccccc21 [Compound 090]	500 to 2500	500 to 2500	–	–
C=CC(=O)N1CCC(N2Cc3cnc(Nc4ccc(N5CCN(C)CC5)cc4)nc3N(C3CCOC3)C2=O)c2ccccc21 (stereo not drawn) [Compound 058]	< 100	< 100	–	–
C=CC(=O)N1CCC(N2Cc3cnc(Nc4ccc(N5CCN(C)CC5)c(C(F)(F)F)c4)nc3N(C)C2=O)c2ccccc21 (stereo not drawn) [Compound 071]	< 100	< 100	–	–
C/C=C/C(=O)N1CC[C@H](N2Cc3cnc(Nc4ccc(N5CCN(C)CC5)cc4)nc3N(C)C2=O)c2ccccc21 [Compound 091]	100 to 500	100 to 500	–	–
C=CC(=O)N1CC[C@H](N2Cc3cnc(Nc4ccc5c(c4)CCN(C)C5)nc3N(CCO)C2=O)c2cccc(C)c21 [Compound 154, 1-(2-hydroxyethyl)-7-[(2-methyl-3,4-dihydro-1 H-isoquinolin-6-yl)amino]-S-[(4S)-8-methyl-1-prop-2-enoyl-3,4-dihydro-2H-quinolin-4-yl]-4H-pyrimido[4,5-d]pyrimidin-2-one]	< 100	< 100	–	–
C=CC(=O)N1CC2(CC(N3Cc4cnc(Nc5ccc(N6CCN(C)CC6)cc5)nc4N(C)C3=O)C2)C1 [Compound 053]	≥ 2500	≥ 2500	–	–
C=CC(=O)N1CCC(N2Cc3cnc(Nc4ccc(S(=O)(=O)NCCO)cc4)nc3N(C)C2=O)c2ccccc21 (stereo not drawn) [Compound 084]	≥ 2500	≥ 2500	–	–
C=C(F)C(=O)N1CCC(N2Cc3cnc(Nc4ccc(N5CCN(C)CC5)cc4)nc3N(C)C2=O)c2ccccc21 (stereo not drawn) [Compound 064]	< 100	< 100	–	–
CN1C(=O)N([C@H]2CCN(C(=O)CC#N)c3ccccc32)Cc2cnc(Nc3cnn(CCO)c3)nc21 [Compound 104]	≥ 2500	≥ 2500	–	–
